The species entered for data set [1] is Homo sapiens. As to the kind of experiment: Liver toxicity in human assessed as induction of drug-induced liver injury by measuring severity class index.
The species entered for data set [2] is Homo sapiens. The data set is described as follows: Liver toxicity in human assessed as induction of drug-induced liver injury by measuring verified drug-induced liver injury concern status.
Throughout, for DILI severity class: key of the grades not given here.

As to `CN[C@H](CC(C)C)C(=O)N[C@H]1C(=O)N[C@@H](CC(N)=O)C(=O)N[C@H]2C(=O)N[C@H]3C(=O)N[C@H](C(=O)N[C@H](C(=O)O)c4cc(O)cc(O)c4-c4cc3ccc4O)[C@H](O)c3ccc(c(Cl)c3)Oc3cc2cc(c3O[C@@H]2O[C@H](CO)[C@@H](O)[C@H](O)[C@H]2O[C@H]2C[C@](C)(N)[C@H](O)[C@H](C)O2)Oc2ccc(cc2Cl)[C@H]1O` [VANCOMYCIN], in the data set listed under Homo sapiens [1], the DILI_severity_class is on record as 0. Besides, in the data set listed under Homo sapiens [2], the DILI_Concern entry was “Less-Dili-Concern”.

With `c1cnc2cc3c(cc2n1)[C@@H]1CNC[C@H]3C1` [VARENICLINE], in the data set filed under Homo sapiens [1], the DILI_severity_class was 2. In addition, the DILI_Concern entry in the data set listed under Homo sapiens [2] was “Less-Dili-Concern”.

As to `NC(=O)CC[C@@H]1NC(=O)[C@H](Cc2ccccc2)NC(=O)[C@H](Cc2ccc(O)cc2)NC(=O)[C@@H](N)CSSC[C@@H](C(=O)N2CCC[C@H]2C(=O)N[C@@H](CCCN=C(N)N)C(=O)NCC(N)=O)NC(=O)[C@H](CC(N)=O)NC1=O` [VASOPRESSIN], in the data set filed under Homo sapiens [1], the DILI_severity_class worked out at 0. For the same molecule, in the data set filed under Homo sapiens [2], the DILI_Concern entry was “No-Dili-Concern”.

`CC(=O)O[C@H]1C[C@@H]2CC[C@@H]3[C@H](CC[C@@]4(C)[C@H]3C[C@H]([N+]3(C)CCCCC3)[C@@H]4OC(C)=O)[C@@]2(C)C[C@@H]1N1CCCCC1` [VECURONIUM]: the DILI_severity_class in the data set filed under Homo sapiens [1] is reported as 0. Besides, the DILI_Concern entry in the data set listed under Homo sapiens [2] is “No-Dili-Concern”.

For `COc1ccc(C(CN(C)C)C2(O)CCCCC2)cc1` (stereo not given) [VENLAFAXINE], the DILI_severity_class in the data set listed under Homo sapiens [1] is on record as 7. Moreover, in the data set listed under Homo sapiens [2], the DILI_Concern entry is reported as “Less-Dili-Concern”.

Consider `C=CC(N)CCC(=O)O` (stereo not given) [VIGABATRIN], for which, in the data set listed under Homo sapiens [1], the DILI_severity_class is 2. Besides, the DILI_Concern result in the data set filed under Homo sapiens [2] is given as “Ambiguous-Dili-Concern”.

Take `CC[C@]1(O)C[C@@H]2CN(CCc3c([nH]c4ccccc34)[C@@](C(=O)OC)(c3cc4c(cc3OC)N(C)[C@H]3[C@@](O)(C(=O)OC)[C@H](OC(C)=O)[C@]5(CC)C=CCN6CC[C@]43[C@@H]65)C2)C1` [VINBLASTINE]: the DILI_severity_class in the data set listed under Homo sapiens [1] was 0. Further, the DILI_Concern entry in the data set filed under Homo sapiens [2] is reported as “No-Dili-Concern”.

For `CC[C@]1(O)C[C@H]2CN(CCc3c([nH]c4ccccc34)[C@@](C(=O)OC)(c3cc4c(cc3OC)N(C=O)[C@H]3[C@@](O)(C(=O)OC)[C@H](OC(C)=O)[C@]5(CC)C=CCN6CC[C@]43[C@@H]65)C2)C1` [VINCRISTINE], the DILI_severity_class in the data set listed under Homo sapiens [1] came to 8. Moreover, in the data set listed under Homo sapiens [2], the DILI_Concern entry is reported as “Less-Dili-Concern”.

As to `CCC1=C[C@@H]2CN(C1)Cc1c([nH]c3ccccc13)[C@@](C(=O)OC)(c1cc3c(cc1OC)N(C)[C@H]1[C@@](O)(C(=O)OC)[C@H](OC(C)=O)[C@]4(CC)C=CCN5CC[C@]31[C@@H]54)C2` [VINORELBINE], the DILI_severity_class in the data set filed under Homo sapiens [1] came to 3. Besides, the DILI_Concern entry in the data set filed under Homo sapiens [2] was “Ambiguous-Dili-Concern”.

On to `C[C@@H](c1ncncc1F)[C@](O)(Cn1cncn1)c1ccc(F)cc1F` [VORICONAZOLE], for which the DILI_severity_class in the data set listed under Homo sapiens [1] was found to be 8. Besides, in the data set listed under Homo sapiens [2], the DILI_Concern entry was “Most-Dili-Concern”.

On to `O=C(CCCCCCC(=O)Nc1ccccc1)NO` [VORINOSTAT], for which, in the data set filed under Homo sapiens [1], the DILI_severity_class is reported as 0. Also, in the data set filed under Homo sapiens [2], the DILI_Concern result is on record as “No-Dili-Concern”.

Take `CC(=O)CC(c1ccccc1)c1c(O)c2ccccc2oc1=O` (stereo not given) [WARFARIN]: the DILI_severity_class in the data set filed under Homo sapiens [1] was 5. Moreover, in the data set filed under Homo sapiens [2], the DILI_Concern entry is “Less-Dili-Concern”.

For `CCOC(Nc1ccc(C(=O)O)cc1)C(=O)c1ccc(-c2ccccc2)cc1` (stereo not given) [XENAZOIC ACID], the DILI_severity_class in the data set listed under Homo sapiens [1] is listed as 8. In addition, in the data set listed under Homo sapiens [2], the DILI_Concern result is given as “Most-Dili-Concern”.

Regarding `CCOC(=O)CN[C@@H](C(=O)N1CC[C@H]1C(=O)NCc1ccc(/C(N)=N\O)cc1)C1CCCCC1` [XIMELAGATRAN], the DILI_severity_class in the data set listed under Homo sapiens [1] stood at 8. In the data set filed under Homo sapiens [2], the DILI_Concern result is “Most-Dili-Concern”.

For `COc1cc(C(=O)NS(=O)(=O)c2ccccc2C)ccc1Cc1cn(C)c2ccc(NC(=O)OC3CCCC3)cc12` [ZAFIRLUKAST], the DILI_severity_class in the data set filed under Homo sapiens [1] is recorded as 8. For the same molecule, the DILI_Concern result in the data set filed under Homo sapiens [2] is on record as “Most-Dili-Concern”.

In the case of `CCN(C(C)=O)c1cccc(-c2ccnc3c(C#N)cnn23)c1` [ZALEPLON], the DILI_severity_class in the data set filed under Homo sapiens [1] stood at 0. Also, the DILI_Concern result in the data set filed under Homo sapiens [2] is recorded as “No-Dili-Concern”.

In the case of `Cc1cn([C@H]2C[C@H](N=[N+]=[N-])[C@@H](CO)O2)c(=O)[nH]c1=O` [ZIDOVUDINE], the DILI_severity_class in the data set filed under Homo sapiens [1] is 8. Moreover, in the data set filed under Homo sapiens [2], the DILI_Concern entry is on record as “Most-Dili-Concern”.

With `CC(c1cc2ccccc2s1)N(O)C(N)=O` (stereo not given) [ZILEUTON], the DILI_severity_class in the data set listed under Homo sapiens [1] is 5. In addition, the DILI_Concern result in the data set filed under Homo sapiens [2] is “Most-Dili-Concern”.

On to `CN(C)C/C=C(/c1ccc(Br)cc1)c1cccnc1` [ZIMELDINE], for which the DILI_severity_class in the data set listed under Homo sapiens [1] turned out to be 8. Moreover, the DILI_Concern result in the data set filed under Homo sapiens [2] is listed as “Most-Dili-Concern”.

Consider `O=C1Cc2cc(CCN3CCN(c4nsc5ccccc45)CC3)c(Cl)cc2N1` [ZIPRASIDONE], for which, in the data set filed under Homo sapiens [1], the DILI_severity_class turned out to be 3. In addition, the DILI_Concern result in the data set listed under Homo sapiens [2] is recorded as “Less-Dili-Concern”.

As for `O.O=P(O)(O)C(O)(Cn1ccnc1)P(=O)(O)O` [ZOLEDRONIC ACID], the DILI_severity_class in the data set listed under Homo sapiens [1] came out at 0. Further, in the data set listed under Homo sapiens [2], the DILI_Concern result is reported as “Less-Dili-Concern”.

On to `CN(C)CCc1c[nH]c2ccc(C[C@H]3COC(=O)N3)cc12` [ZOLMITRIPTAN], for which the DILI_severity_class in the data set listed under Homo sapiens [1] was 3. The DILI_Concern result in the data set listed under Homo sapiens [2] is on record as “Ambiguous-Dili-Concern”.

In the case of `Cc1ccc(-c2nc3ccc(C)cn3c2CC(=O)N(C)C)cc1` [ZOLPIDEM], the DILI_severity_class in the data set listed under Homo sapiens [1] is on record as 7. Moreover, the DILI_Concern entry in the data set listed under Homo sapiens [2] is recorded as “Ambiguous-Dili-Concern”.

As to `NS(=O)(=O)Cc1noc2ccccc12` [ZONISAMIDE], in the data set listed under Homo sapiens [1], the DILI_severity_class was found to be 2. Also, the DILI_Concern entry in the data set listed under Homo sapiens [2] is listed as “Less-Dili-Concern”.

Consider BIVALIRUDIN, for which the DILI_severity_class in the data set filed under Homo sapiens [1] is 0. In the data set listed under Homo sapiens [2], the DILI_Concern entry is reported as “No-Dili-Concern”.

Take BLEOMYCIN: in the data set filed under Homo sapiens [1], the DILI_severity_class amounted to 3. Besides, the DILI_Concern entry in the data set listed under Homo sapiens [2] was “Ambiguous-Dili-Concern”.

As to CUPRIC CHLORIDE, the DILI_severity_class in the data set listed under Homo sapiens [1] is listed as 0. The DILI_Concern result in the data set listed under Homo sapiens [2] is “No-Dili-Concern”.

Consider DALTEPARIN SODIUM, for which the DILI_severity_class in the data set filed under Homo sapiens [1] is on record as 3. For the same molecule, in the data set listed under Homo sapiens [2], the DILI_Concern result is “Less-Dili-Concern”.

As for GALLIUM NITRATE, the DILI_severity_class in the data set listed under Homo sapiens [1] is recorded as 3. In addition, in the data set listed under Homo sapiens [2], the DILI_Concern entry is “Ambiguous-Dili-Concern”.

On to “H-SEEPPISLDLTFHLLREVLEMARAEQLAQQAHSNRKMLEII-OH”, for which, in the data set filed under Homo sapiens [1], the DILI_severity_class came to 0. Moreover, the DILI_Concern result in the data set filed under Homo sapiens [2] is “No-Dili-Concern”.

IVERMECTIN: in the data set listed under Homo sapiens [1], the DILI_severity_class was 3. The DILI_Concern entry in the data set listed under Homo sapiens [2] is “Less-Dili-Concern”.

Consider LANTHANUM CARBONATE, for which the DILI_severity_class in the data set listed under Homo sapiens [1] is reported as 0. Further, the DILI_Concern entry in the data set filed under Homo sapiens [2] was “No-Dili-Concern”.

As to NYSTATIN, the DILI_severity_class in the data set listed under Homo sapiens [1] was 0. Also, the DILI_Concern result in the data set listed under Homo sapiens [2] is listed as “No-Dili-Concern”.

Regarding POLYMYXIN B SULFATE, in the data set listed under Homo sapiens [1], the DILI_severity_class stood at 0. Moreover, the DILI_Concern entry in the data set filed under Homo sapiens [2] was “No-Dili-Concern”.

For SECRETIN, in the data set listed under Homo sapiens [1], the DILI_severity_class was found to be 0. The DILI_Concern entry in the data set filed under Homo sapiens [2] is “No-Dili-Concern”.

Regarding SEVELAMER, the DILI_severity_class in the data set listed under Homo sapiens [1] was determined as 0. Besides, the DILI_Concern entry in the data set listed under Homo sapiens [2] is reported as “No-Dili-Concern”.

As for SIMETHICONE, in the data set listed under Homo sapiens [1], the DILI_severity_class worked out at 0. The DILI_Concern entry in the data set listed under Homo sapiens [2] is “No-Dili-Concern”.

With VERTEPORFIN, in the data set listed under Homo sapiens [1], the DILI_severity_class was 3. For the same molecule, the DILI_Concern result in the data set filed under Homo sapiens [2] is on record as “Ambiguous-Dili-Concern”.

Take VITAMIN E: the DILI_severity_class in the data set listed under Homo sapiens [1] is given as 0. In the data set listed under Homo sapiens [2], the DILI_Concern result is given as “No-Dili-Concern”.

As to enfuvirtide, the DILI_severity_class in the data set filed under Homo sapiens [1] was 3. The DILI_Concern entry in the data set filed under Homo sapiens [2] is “Ambiguous-Dili-Concern”.

For the origin of these results see ChEMBL document CHEMBL4028802, “DILIrank: the largest reference drug list ranked by the risk for developing drug-induced liver injury in humans” (Drug Discov Today, 2016).
